Values of other authors as cited in US20170172144A1, “ECTOPARASITE FORMULATION” (priority 2014, published 2017).
Structures can show the parent of a compound that is named as a salt.

Conditions: qualitative statement
For c1ccc([C@H]2CN3CCSC3=N2)cc1 [levamisole hydrochloride, Levamisole hydrochloride], the aqueous solubility is listed as “soluble”.
In the case of Abamectin, the aqueous solubility is given as “relatively low solubility”.
For COC(=O)Nc1nc2ccc([S+]([O-])c3ccccc3)cc2[nH]1 (stereo not drawn) [oxfendazole, Oxfendazole], the aqueous solubility is given as “relatively low solubility”.
